Measured values taken from patent EP0370499A2, “Use of benzomorphanes in cytoprotection” (BOEHRINGER INGELHEIM KG, priority 1988, dated 1990).

System: Hippocampusschnitt
Test: Hippocampal slice: epileptic discharges in magnesium-free medium (stimulation of Schaffer collaterals, extracellular recording at CA1 pyramidal cells)
Format: cell-based
Details: addition of 100 mmol, Abb. 1c
Description: Als Testsystem für den Nachweis der zytoprotektiven Eigenschaften der Benzomorphanderivate dient der Hippocampusschnitt. Über Mikroelektroden werden die Schäfferkollaterale des sich in einer Perfusionskammer befindenden Hippocampusschnittes stimuliert und die auftretenden Summenpotentiale extrazellulär an den Pyramidenzellen der CAI-Region abgeleitet [H.L. Haas, B. Schaerer und M. Vosmansky, J. Neuroscience Meth. 1 (1979) 323].
Eine typische Stimulation in einem magnesiumhaltigem Medium ist in Abb. 1a dargestellt. - Abb. 1b zeigt multiple epileptische Entladungen in einem magnesiumfreien Medium. Diese Entladungen werden - wie Abb. 1c belegt - beispielsweise durch Zugabe von […] (-)-(1R,5R,9R)-N-(2-Furylmethyl)-5,9-dimethyl-2′- hydroxy-6,7-benzomorphan gehemmt.

## C[C@H]1[C@H]2Cc3ccc(O)cc3[C@]1(C)CCN2Cc1ccco1 [(-)-(1R,5R,9R)-N-(2-Furylmethyl)-5,9-dimethyl-2′-hydroxy-6,7-benzomorphan]
  multiple epileptische Entladungen: gehemmt
